Test results as given in patent US4072751A, “Pesticidal N-substituted bis-carbamoyl sulfide compounds” (priority 1976, dated 1978).

Tested on: bean aphid (Aphis Fabae Scop.)
Experiment: Bean Aphid Foliage Spray Test
Type: in vivo
Set-up: key: A: excellent control; B: partial control; C: no control
Conditions: 500 parts of test compound per million parts of final formulation; 24 hour
Experimental: (§1) Suspensions of the test compounds were prepared by dissolving one gram of compound in 50 milliliters of acetone in which had been dissolved 0.1 gram (10 percent of the weight of compound) of an alkylphenoxy polyethoxyethanol surfactant, as an emulsifying or dispersing agent. The resulting solution was mixed into 150 milliliters of water to give roughly 200 milliliters of a suspension containing the compound in finely divided form. The thus-prepared stock suspension contained 0.5 percent by weight of test compound. The test concentrations in parts per million by weight employed in the tests described hereinbelow were obtained by appropriate dilutions of the stock suspension with water. The test procedures were as follows:
Adults and nymphal stages of the bean aphid (Aphis Fabae Scop.) reared on potted dwarf nasturtium plants at 65°-70° F and 50-70 percent relative humidity, constituted the test insects. For testing purposes, the number of aphids per pot was standardized to 100-150 by trimming plants containing excess aphids.
The test compounds were formulated by diluting the stock suspension with water to give a suspension containing 500 parts of test compound per million parts of final formulation.
The potted plants (one pot per compound tested) infested with 100-150 aphids, were placed on a revolving turntable and sprayed with 100-110 milliliters of test compound formulation by use of a DeVilbiss spray gun set at 40 psig. air pressure. This application, which lasted 25 seconds, was sufficient to wet the plants to run-off. As a control, 100-110 milliliters of a water-acetone-emulsifier solution containing no test compound were also sprayed on infested plants. After spraying, the pots were placed on their sides on a sheet of white standard mimeograph paper which had been previously ruled to facilitate counting. Temperature and humidity in the test room during the 24 hour holding period were 65°-70° F. and 50-70 percent, respectively. Aphids which fell onto the paper and were unable to remain standing after being uprighted were considered dead. Aphids remaining on the plants were observed closely for movement and those which were unable to move the length of the body upon stimulator by prodding were considered dead. Percent mortality was recorded for various concentration levels.
(§2) In these tests the pesticidal activity of the compounds against aphid, mite, Southern Armyworm, Mexican Bean Beetle, and house fly was rated as follows: […]

Q: With `CSC(C)=NOC(=O)N(C)SN(C)C(=O)ON=C(C)[S+](C)[O-]` (stereo not shown) as the molecule, how does the Aphid read?
A: A

Q: With `CSC(C)=NOC(=O)N(C)SN(C)C(=O)ON=C(C)S(C)(=O)=O` as the molecule, how does the Aphid read?
A: A

Q: For `CC(=NOC(=O)N(C)SN(C)C(=O)ON=C(C)[S+](C)[O-])[S+](C)[O-]` (stereo not shown), which Aphid is on record?
A: C

Q: Which Aphid does the source give for `CC(=NOC(=O)N(C)SN(C)C(=O)ON=C(C)S(C)(=O)=O)S(C)(=O)=O` here?
A: C

Tested on: not listed separately
Experiment: Mammalian Toxicity Test (peroral toxicity)
Conditions: in vivo, po, rat, read-out: A. O. Rat (LD50)
Experimental: Certain of these compositions were also evaluated to determine their peroral toxicity to mammals. The animal selected for this experiment was the rat. The test results obtained are expressed in terms of the number of milligrams of compositions per kilogram of weight of the animal required to achieve a morality rate of 50 percent (LD50).

Q: For `CSC(C)=NOC(=O)N(C)SN(C)C(=O)ON=C(C)[S+](C)[O-]` (stereo not shown), which LD50 is on record?
A: 202 mg/kg

Q: Which LD50 does the source give for `CSC(C)=NOC(=O)N(C)SN(C)C(=O)ON=C(C)S(C)(=O)=O` here?
A: 285 mg/kg

Tested on: two-spotted mite (Tetranychus urticae Koch)
Experiment: Mite Foliage Spray Test
Type: in vivo
Set-up: key: A: excellent control; B: partial control; C: no control
Conditions: 500 parts of test compound per million parts of final formulation; 6 days
Experimental: as §1
Adults and nymphal stages of the two-spotted mite (Tetranychus urticae Koch), reared on Tendergreen bean plants at 80±5 percent relative humidity, were the test organisms. Infested leaves from a stock culture were placed on the primary leaves of two bean plants 6 to 8 inches in height, growing in a 21/2 inch clay pot. 150-200 Mites, a sufficient number for testing, transferred from the excised leaves to the fresh plants in a period of 24 hours. Following the 24 hour transfer period, the excised leaves were removed from the infested plants. The test compounds were formulated by diluting the stock suspension with water to give a suspension with water to give a suspension containing 500 parts of test compound per million parts of final formulation. The potted plants (one pot per compound) were placed on a revolving turntable and sprayed with 100-110 milliliters of test compound formulation by use of a DeVilbiss spray gun set at 40 psig. air pressure. This application, which lasted for 25 seconds was sufficient to wet the plants to run-off. As a control, 100-110 milliliters of a water solution containing acetone and emulsifier in the same concnetrations as the test compound formulation, but containing no test compound, were also sprayed on infested plants. The sprayed plants were held at 80±5 percent relative humidity for 6 days, after which a mortality count of motile forms was made. Microscopic examination for motile forms was made on the leaves of the test plants. Any individual which was capable of locomotion upon prodding, was considered living.
as §2

Q: Which Mite does the source give for `CSC(C)=NOC(=O)N(C)SN(C)C(=O)ON=C(C)[S+](C)[O-]` (stereo not shown) here?
A: C

Q: For `CSC(C)=NOC(=O)N(C)SN(C)C(=O)ON=C(C)S(C)(=O)=O`, which Mite is on record?
A: A

Q: For `CC(=NOC(=O)N(C)SN(C)C(=O)ON=C(C)[S+](C)[O-])[S+](C)[O-]` (stereo not shown), which Mite is on record?
A: C

Q: With `CC(=NOC(=O)N(C)SN(C)C(=O)ON=C(C)S(C)(=O)=O)S(C)(=O)=O` as the molecule, how does the Mite read?
A: C

Tested on: house flies (Musca domestica, L.)
Experiment: Fly Bait Test
Type: in vivo
Set-up: key: A: excellent control; B: partial control; C: no control
Conditions: adults, 500 parts of test compound per million parts of final formulation, 24 hours
Experimental: as §1
Four to 6 day old adult house flies (Musca domestica, L.) reared according to the specifications of the Chemical Specialties Manufacturing Association (Blue Book, McNair-Dorland Co., NY., 1954; pages 243-244, 261) under controlled conditions of 80±5° F. and 50±5 percent relative hmidity, were the test insects. The flies were immobilized by anesthetizing with carbon dioxide and 25 immobilized individuals, males and females, were transferred to a cage consisting of a standard food strainer about 5 inches in diameter which was inverted over a wrapping-paper-covered surface. The test compounds were formulated by diluting the stock suspension with a 10 percent (by weight) sugar solution to give a suspension containing 500 parts of test compound per million parts of final formulation, by weight. Ten milliliters of the test formulation were added to a souffle cup containing a one inch square of an absorbent cotton pad. This bait cup was introduced and centered on the blotting paper under the food strainer prior to admitting the anesthetized flies. The caged flies were allowed to feed on the bait for 24 hours, at a temperature of 80±5° F. and the relative humidity of 50±5 percent.
as §2

Q: For `CSC(C)=NOC(=O)N(C)SN(C)C(=O)ON=C(C)[S+](C)[O-]` (stereo not shown), which Housefly is on record?
A: A

Q: With `CSC(C)=NOC(=O)N(C)SN(C)C(=O)ON=C(C)S(C)(=O)=O` as the molecule, how does the Housefly read?
A: A

Q: Which Housefly does the source give for `CC(=NOC(=O)N(C)SN(C)C(=O)ON=C(C)[S+](C)[O-])[S+](C)[O-]` (stereo not shown) here?
A: C

Q: Which Housefly does the source give for `CC(=NOC(=O)N(C)SN(C)C(=O)ON=C(C)S(C)(=O)=O)S(C)(=O)=O` here?
A: C

Tested on: southern armyworm (Prodenia Eridania, (Cram.))
Experiment: Southern Armyworm Leaf Spray Test
Type: in vivo
Set-up: key: A: excellent control; B: partial control; C: no control
Conditions: larvae; 500 parts of test compound per million parts of final formulation; 3 days
Experimental: as §1
Larvae of the southern armyworm (Prodenia Eridania, (Cram.), reared on Tendergreen bean plants at a temperature of 80±5° F. and relative humidity of 50±5 percent, constituted the test insects.
The test compounds were formulated by diluting the stock suspension with water to give a suspension containing 500 parts of test compound per million parts of final formulation. Potted Tendergreen bean plants of standard height and age were placed on a revolving turntable and sprayed with 100-110 milliliters of test compound formulation by use of a DeVilbiss spray gun set at 10 psig. air pressure.
This application which lasted 25 seconds was sufficient to wet plants to run-off. As a control, 100-110 milliliters of a water-acetone-emulsifier solution containing no test compound were also sprayed on infested plants. When dry, the paired leaves were separated and each one was placed in a 9 centimeter Petri dish lined with moistened filter paper. Five randomly selected larvae were introduced into each dish and the dishes were closed. The closed dishes were labeled and held at 80°-85° F. for 3 days. Although the larvae could easily consume the whole leaf within 24 hours, no more food was added. Larvae which were unable to move the length of the body, even upon stimulation by prodding, were considered dead. Percent mortality was recorded for various concentration levels.
as §2

Q: With `CSC(C)=NOC(=O)N(C)SN(C)C(=O)ON=C(C)[S+](C)[O-]` (stereo not shown) as the molecule, how does the “Southern Armyworm” value read?
A: A

Q: For `CSC(C)=NOC(=O)N(C)SN(C)C(=O)ON=C(C)S(C)(=O)=O`, which “Southern Armyworm” value is on record?
A: A

Q: With `CC(=NOC(=O)N(C)SN(C)C(=O)ON=C(C)[S+](C)[O-])[S+](C)[O-]` (stereo not shown) as the molecule, how does the “Southern Armyworm” value read?
A: C

Q: Which “Southern Armyworm” value does the source give for `CC(=NOC(=O)N(C)SN(C)C(=O)ON=C(C)S(C)(=O)=O)S(C)(=O)=O` here?
A: C

Tested on: Mexican bean beetle (Epilachna varivestis, Muls.)
Experiment: Mexican Bean Beetle Leaf Spray Test
Type: in vivo
Set-up: key: A: excellent control; B: partial control; C: no control
Conditions: fourth instar larvae; 500 parts of test compound per million parts of final formulation; 3 days
Experimental: as §1
Fourth instar larvae of the Mexican bean beetle (Epilachna varivestis, Muls.) reared on Tendergreen bean plants at a temperature of 80±5° and 50±5 percent relative humidity, were the test insects.
The test compounds were formulated by diluting the stock suspension with water to give a suspension containing 500 parts of test compound per million parts of final formulation. Potted Tendergreen bean plants of standard height and age were placed on a revolving turntable and sprayed with 100-110 milliliters of test compound formulation by use of a DeVilbiss spray gun set at 10 psig air pressure. This application, which lasted 25 seconds was sufficient to wet plants to run-off. As a control, 100-110 milliliters of a water-acetone-emulsifier solution containing no test compound were also sprayed on infested plants. When dry, the paired leaves were separated and each was placed in a 9 centimeter Petri dish lined with moistened filter paper. Five randomly selected larvae were introduced into each dish, and the dishes were closed. The closed dishes were labeled and held at a temperature of 80±5° F. for 3 days. Although the larvae could easily consume the leaf within 24 to 48 hours, no more food was added. Larvae which were unable to move the length of the body, even upon stimulation, were considered dead.
as §2

Q: Which “Mexican Bean Beetle” value does the source give for `CSC(C)=NOC(=O)N(C)SN(C)C(=O)ON=C(C)[S+](C)[O-]` (stereo not shown) here?
A: A

Q: Which “Mexican Bean Beetle” value does the source give for `CSC(C)=NOC(=O)N(C)SN(C)C(=O)ON=C(C)S(C)(=O)=O` here?
A: A

Q: With `CC(=NOC(=O)N(C)SN(C)C(=O)ON=C(C)[S+](C)[O-])[S+](C)[O-]` (stereo not shown) as the molecule, how does the “Mexican Bean Beetle” value read?
A: C

Q: Which “Mexican Bean Beetle” value does the source give for `CC(=NOC(=O)N(C)SN(C)C(=O)ON=C(C)S(C)(=O)=O)S(C)(=O)=O` here?
A: C
